# Reference: ChEMBL document CHEMBL1201862, “PubChem BioAssay data set” (2004)
#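 Interpolation was linear, between the two tested concentrations surrounding the appropriate level; five concentrations were tested over 48 hours in 96-well plates. GI50 = concentration required for 50% inhibition of growth.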 Calls of active or inactive are those of the source. Rule as the data show it: active = GI50 up to about 1.1 µM and inactive = higher.
# What was measured:
# Test in all cases: NCI-60 cell line screen, 48 h
# [1] = tested on: K562
# [2] = tested on: A549
# [3] = tested on: SNB-19
# [4] = tested on: SNB-75
# [5] = tested on: M14
# [6] = tested on: OVCAR-8
# [7] = tested on: HT-29
# [8] = tested on: DU-145
# [9] = tested on: IGROV-1
# [10] = tested on: SK-MEL-28
# [11] = tested on: RXF 393
# [12] = tested on: MCF7
# [13] = tested on: EKVX
# [14] = tested on: SK-OV-3
# [15] = tested on: NCI-H460
# [16] = tested on: HOP-92
# [17] = tested on: HL-60
# [18] = tested on: SR
SMILES,GI50 [1],GI50 [2],GI50 [3],GI50 [4],GI50 [5],GI50 [6],GI50 [7],GI50 [8],GI50 [9],GI50 [10],GI50 [11],GI50 [12],GI50 [13],GI50 [14],GI50 [15],GI50 [16],GI50 [17],GI50 [18]
COc1ccc(/C=C2\N=C(SC)NC2=O)cc1,> 10 µM (inactive),> 100 µM (inactive),38.5 µM (inactive),27.2 µM (inactive),> 100 µM (inactive),> 100 µM (inactive),> 100 µM (inactive),53.8 µM (inactive),56.5 µM (inactive),> 100 µM (inactive),67.3 µM (inactive),70.8 µM (inactive),30.4 µM (inactive),> 100 µM (inactive),–,–,–,–
Cc1cc([N+](=O)[O-])c(C)c(Br)c1C,> 100 µM (inactive),> 100 µM (inactive),> 100 µM (inactive),25.2 µM (inactive),> 100 µM (inactive),> 100 µM (inactive),> 100 µM (inactive),> 100 µM (inactive),> 100 µM (inactive),> 100 µM (inactive),60.5 µM (inactive),> 100 µM (inactive),70.8 µM (inactive),> 100 µM (inactive),> 100 µM (inactive),62.2 µM (inactive),–,–
C/C(=N\Nc1nc2ccccc2s1)c1ccc2ccccc2n1,–,> 100 µM (inactive),> 100 µM (inactive),15.5 µM (inactive),46.2 µM (inactive),> 100 µM (inactive),85.9 µM (inactive),> 100 µM (inactive),0.402 µM (active),> 100 µM (inactive),26.4 µM (inactive),46.3 µM (inactive),12.2 µM (inactive),> 100 µM (inactive),> 100 µM (inactive),–,23.2 µM (inactive),2 µM (inactive)
N#CC1=C2Sc3ccccc3N2[C@H](c2ccccc2)[C@H]2COC(=O)[C@@H]12,–,> 100 µM (inactive),> 100 µM (inactive),21.6 µM (inactive),52.4 µM (inactive),> 100 µM (inactive),–,> 100 µM (inactive),–,> 100 µM (inactive),70.3 µM (inactive),31 µM (inactive),> 100 µM (inactive),> 100 µM (inactive),–,> 100 µM (inactive),–,–
COc1cc(C2SCC(=O)N2c2ccc(Oc3ccc(Cl)cc3)c(Cl)c2)cc(OC)c1OC (stereo unspecified),33.4 µM (inactive),21.9 µM (inactive),34.2 µM (inactive),17.2 µM (inactive),29.9 µM (inactive),17 µM (inactive),16.3 µM (inactive),13.3 µM (inactive),15.6 µM (inactive),16.6 µM (inactive),–,36.3 µM (inactive),23.6 µM (inactive),17.1 µM (inactive),43.4 µM (inactive),–,–,22 µM (inactive)
COc1cc2oc(-c3ccc4c(c3)OCO4)c(OC)c(=O)c2c(OC)c1O,34.4 µM (inactive),48.1 µM (inactive),> 100 µM (inactive),33.2 µM (inactive),> 100 µM (inactive),32.8 µM (inactive),> 100 µM (inactive),> 100 µM (inactive),37.5 µM (inactive),> 100 µM (inactive),> 100 µM (inactive),69.7 µM (inactive),37.6 µM (inactive),39.4 µM (inactive),64.6 µM (inactive),13.6 µM (inactive),28.7 µM (inactive),–
O=C(Cn1c2c(c3ccccc31)CCCC2)N1CCOCC1,> 100 µM (inactive),> 100 µM (inactive),> 100 µM (inactive),–,> 100 µM (inactive),> 100 µM (inactive),> 100 µM (inactive),–,> 100 µM (inactive),–,–,> 100 µM (inactive),> 100 µM (inactive),> 100 µM (inactive),> 100 µM (inactive),> 100 µM (inactive),> 100 µM (inactive),–
O=C(N[C@@H](c1ccccc1)[C@@H](O)C(=O)OCc1ccc([N+](=O)[O-])cc1)c1ccccc1,51.3 µM (inactive),> 100 µM (inactive),> 100 µM (inactive),44.1 µM (inactive),–,> 100 µM (inactive),> 100 µM (inactive),> 100 µM (inactive),> 100 µM (inactive),–,> 100 µM (inactive),84.5 µM (inactive),> 100 µM (inactive),> 100 µM (inactive),> 100 µM (inactive),> 100 µM (inactive),–,–
COc1ccccc1/C=C\C(=O)C1COCN1 (stereo unspecified),6.98 µM (inactive),23.1 µM (inactive),13.1 µM (inactive),18.6 µM (inactive),50.8 µM (inactive),14.5 µM (inactive),6.35 µM (inactive),17.3 µM (inactive),16.1 µM (inactive),18 µM (inactive),21 µM (inactive),5.53 µM (inactive),19.4 µM (inactive),10.2 µM (inactive),30.9 µM (inactive),–,19 µM (inactive),1.95 µM (inactive)
O=C(O)CC(NC(=O)/C(=C/c1ccccc1O)NC(=O)c1ccccc1)C(=O)O (stereo unspecified),74.1 µM (inactive),> 100 µM (inactive),–,88.1 µM (inactive),> 100 µM (inactive),> 100 µM (inactive),80.7 µM (inactive),–,58.9 µM (inactive),> 100 µM (inactive),–,34 µM (inactive),83.9 µM (inactive),> 100 µM (inactive),–,–,25.8 µM (inactive),29.8 µM (inactive)
CCCCOC(=O)C1CN2C(=NC1(C(F)(F)F)C(F)(F)F)Sc1ccccc12 (stereo unspecified),12.2 µM (inactive),40.5 µM (inactive),96.2 µM (inactive),35.1 µM (inactive),44.1 µM (inactive),43.6 µM (inactive),22.5 µM (inactive),67.1 µM (inactive),11 µM (inactive),74.5 µM (inactive),24.1 µM (inactive),32.1 µM (inactive),37.2 µM (inactive),78.5 µM (inactive),34.9 µM (inactive),72.4 µM (inactive),16.6 µM (inactive),–
Clc1ccc(C2ON=C(c3ccccc3)N2C23CC4CC(CC(C4)C2)C3)cc1Cl (stereo unspecified),> 10 µM (inactive),> 10 µM (inactive),> 10 µM (inactive),> 10 µM (inactive),> 10 µM (inactive),> 10 µM (inactive),> 10 µM (inactive),> 10 µM (inactive),> 10 µM (inactive),7.93 µM (inactive),> 10 µM (inactive),> 10 µM (inactive),> 10 µM (inactive),> 10 µM (inactive),> 10 µM (inactive),7.13 µM (inactive),–,–
CC(=O)O[C@H]1CCC2[C@@H]3CCC4Cc5nc6c(nc5C[C@]4(C)C3CC[C@@]21C)CC1CC[C@@H]2C(CC[C@@]3(C)C2CC[C@@H]3C(C)CCCC(C)C)[C@@]1(C)C6 (stereo partly specified),> 100 µM (inactive),> 100 µM (inactive),> 100 µM (inactive),> 100 µM (inactive),> 100 µM (inactive),> 100 µM (inactive),> 100 µM (inactive),> 100 µM (inactive),> 100 µM (inactive),> 100 µM (inactive),> 100 µM (inactive),> 100 µM (inactive),> 100 µM (inactive),> 100 µM (inactive),> 100 µM (inactive),> 100 µM (inactive),> 100 µM (inactive),–
CCOC(=O)Nn1cnnc1Cc1ccccc1,> 100 µM (inactive),> 100 µM (inactive),> 100 µM (inactive),–,> 100 µM (inactive),> 100 µM (inactive),> 100 µM (inactive),–,> 100 µM (inactive),–,–,> 100 µM (inactive),> 100 µM (inactive),> 100 µM (inactive),> 100 µM (inactive),> 100 µM (inactive),–,> 100 µM (inactive)
CC(/C=N\NC(=S)N(C)C)=N/NC(=S)N(C)C,0.582 µM (active),0.142 µM (active),0.721 µM (active),0.557 µM (active),0.393 µM (active),0.308 µM (active),0.0995 µM (active),0.195 µM (active),0.575 µM (active),4.52 µM (inactive),0.586 µM (active),0.759 µM (active),0.832 µM (active),0.484 µM (active),0.0412 µM (active),1.84 µM (inactive),–,–
CCCCCOCC(O)CO (stereo unspecified),–,> 100 µM (inactive),> 100 µM (inactive),–,–,> 100 µM (inactive),–,–,> 100 µM (inactive),> 100 µM (inactive),> 100 µM (inactive),–,> 100 µM (inactive),–,> 100 µM (inactive),> 100 µM (inactive),–,–
O=c1[nH]nc(Cc2ccccc2)n1/N=C/c1ccccc1O,> 100 µM (inactive),> 100 µM (inactive),79.8 µM (inactive),–,> 100 µM (inactive),40.1 µM (inactive),> 100 µM (inactive),> 100 µM (inactive),83.8 µM (inactive),> 100 µM (inactive),23.4 µM (inactive),> 100 µM (inactive),> 100 µM (inactive),> 100 µM (inactive),> 100 µM (inactive),53.7 µM (inactive),> 100 µM (inactive),–
C[n+]1c(-c2ccc(/C=N/N=C/c3ccc(-c4cn5ccccc5[n+]4C)cc3)cc2)cn2ccccc21,> 100 µM (inactive),> 100 µM (inactive),> 100 µM (inactive),> 100 µM (inactive),> 100 µM (inactive),> 100 µM (inactive),> 100 µM (inactive),–,> 100 µM (inactive),> 100 µM (inactive),–,> 100 µM (inactive),> 100 µM (inactive),> 100 µM (inactive),> 100 µM (inactive),–,> 100 µM (inactive),> 100 µM (inactive)
